The values that follow are results of earlier work, collected in patent publication US20250257300A1, “MICROTITER-PLATE-BASED HIGH THROUGHPUT PERFUSION BIOREACTOR” (THE GEORGE WASHINGTON UNIVERSITY, priority 2022, published 2025).

Molecules are shown by their SMILES.

For this series, the system named is Pseudomonas aeruginosa biofilms. To be noted: Pseudomonas aeruginosa biofilms growing on urinary catheters vs planktonic cells.

As for `NC[C@H]1O[C@H](O[C@H]2[C@H](O)[C@@H](O[C@H]3O[C@H](CO)[C@@H](O)[C@H](N)[C@H]3O)[C@H](N)C[C@@H]2N)[C@H](N)C[C@@H]1O` [tobramycin], the “resistance of biofilms to tobramycin relative to planktonic cells” value is 1000 times.
